Consider 14 compounds from patent US8163709B2, “TAK1-D mediated induction of cell death in human cancer cells by specific sequence short double-stranded RNAS” (Board of Regents of the University of Texas System, priority 2008, dated 2012).

“Also recorded” adds a separate entry of the source. d = 2'-deoxy (DNA); r = 2'-OH (RNA)

One data set deals with T1, TAK1-D (Homo sapiens, UniProt O43318).
T1 sequence (O43318 1-491 isoform O43318-4): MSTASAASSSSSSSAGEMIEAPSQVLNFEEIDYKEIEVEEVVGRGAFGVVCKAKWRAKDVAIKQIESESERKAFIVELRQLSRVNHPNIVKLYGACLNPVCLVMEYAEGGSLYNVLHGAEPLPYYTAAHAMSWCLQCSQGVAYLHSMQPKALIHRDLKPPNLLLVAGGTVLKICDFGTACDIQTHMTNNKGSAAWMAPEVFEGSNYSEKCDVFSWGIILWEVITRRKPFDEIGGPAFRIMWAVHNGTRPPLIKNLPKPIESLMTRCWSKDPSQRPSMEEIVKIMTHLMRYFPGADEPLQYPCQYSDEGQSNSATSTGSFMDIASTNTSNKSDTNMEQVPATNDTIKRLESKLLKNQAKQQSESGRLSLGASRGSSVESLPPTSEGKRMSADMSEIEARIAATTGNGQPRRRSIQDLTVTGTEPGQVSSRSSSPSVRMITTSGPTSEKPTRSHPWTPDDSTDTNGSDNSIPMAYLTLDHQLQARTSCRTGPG
The data set can be described thus: TAK1-D autophosphorylation on T184/T187 in H460 cells (Western blot, phospho-specific antibody). Type of data set: cell-based. The arrangement: endogenous in cells; host or cells: NCI-H460. The settings on record: for activating autophosphorylation (activation) of TAK1-D on T184 and T187: RNA transfected (20 nM), Western blot; for activating autophosphorylation of TAK1-D on T184 and T187: H460, ribotoxins 90 minutes (same concentrations). As to the method:
In an effort to identify the MAPKKK responsible for the activation of the p38 MAP kinase and SAPK/JNK pathway, several of these kinases were screened for siRNA si5 mediated activation.
Immunoblot analysis. Western blotting was performed exactly as described previously (Kodym et al., 2008b). In addition to the primary antibodies previously mentioned (Kodym et al., 2008b) the following antibodies were used: S6 ribosomal protein (Cell Signaling #2217), DPM1 (Santa Cruz #sc-15836, Santa Cruz, Calif., USA), and Histone H3 (Cell Signaling #9715).

A further data set relates to TLK1. In words: TLK1 post-transcriptional silencing in HeLa cells (Western blot). In kind it is cell-based, human. As to conditions: 48 h after transfection. As to the method:
In order to test whether dsRNA molecules show the same cellular uptake and stability the efficiency of these molecules to post-transcriptionally silence the expression of TLK1 was determined as si6 as well as si5 siRNA are directed against the mRNA of this protein. […] As a loading control the unchanged expression levels of TAK1-A/B and 3-tubulin are shown in the two lower panels.
A general note: A western blot detects proteins with antibodies after separation by electrophoresis.

The test system of a further data set is SAPK/JNK pathway. The data set can be described thus: Activation of the SAPK/JNK pathway in H460 cells (Western blot). In kind it is cell-based, human. The settings on record: H460, ribotoxins 90 minutes (same concentrations).
The subject of the next data set is p38 MAP kinase pathway. The data set can be described thus: Activation of the p38 MAP kinase pathway in H460 cells (Western blot). In kind it is cell-based, human. From the text: Both siRNAs were directed against the mRNA of the same gene TLK1.
A further data set relates to H460 cells. In words: Survival assay of H460 cells, Crystal Violet staining.
For another data set, the system named is NF-κB. In words: NF-κB activation in H460 cells (EMSA, IKKα/β phosphorylation). In kind it is cell-based, human. As to conditions: 10 ng/ml, 30 min, listed as IL1β. As to the method:
EMSA. Electrophoretic mobility shift assays for NFκB were performed as described previously (Kurland et al., 2001) using 3.5 μg of nuclear protein for each reaction.
FIG. 16B illustrates the effect of dominant-negative TAK1-D/K63W on dsRNA si5 induced cell death. […] As a slight growth inhibition of si5 transfected H460-K63W cells can be observed in FIG. 16B it is interesting to ask whether this is caused by an incomplete suppression of TAK1-D activity or by activation of other dsRNA-dependent stress pathways. To answer this question, the activation of the transcription factor NF-κB by dsRNA si5 was tested, as it well established that dsRNA triggered activation of PKR (Zamanian-Daryoush et al., 2000), TLR3 (Jiang et al., 2003), and RIG1/Mda-5 (Hiscott et al., 2006) leads to a downstream activation of NF-κB.

For the next data set, the system named is TAK1-A. The data set can be described thus: Autophosphorylation of the other (long) Tak1 splicing variants in H460 cells. In kind it is cell-based, human. The settings on record: 10 ng/ml, 30 min. From the text:
In contrast only the long form (TAK1-A) is able to activate the NFκB pathway through phosphorylation of IKKα/β.

With “si5s: si5 with two ribonucleotides in the middle of the molecule deleted (SEQ ID NO:17) (GGCUUUUGACUUAUGAATT; siRNA; sugars from the 5' end r17 d2, backbone not given here)”, the “activating autophosphorylation (activation) of TAK1-D on T184 and T187” value with TAK1-D (H460 cells) is “completely abolished its ability to activate Tak1-D”. The “expression level of TLK1” value in the data set on TLK1 was “lack of post-transcriptional silencing of TLK1”.

Regarding `CN(CC[C@H](N)CC(=O)N[C@H]1C=C[C@H](n2ccc(N)nc2=O)O[C@@H]1C(=O)O)C(=N)N` [Blasticidin S], the “activating phosphorylations of SAPK/JNK and its upstream kinase MKK4” value in the data set with SAPK/JNK pathway is “induced activating phosphorylations”; in the data set on SAPK/JNK pathway (listed as blasticidin S), “induce an activation of p38 MAP kinase and SAPK/JNK”. The “activating phosphorylations of p38 MAP kinase and its upstream kinases MKK3/6” value with p38 MAP kinase pathway is “induced activating phosphorylations; also recorded: induce an activation of p38 MAP kinase and SAPK/JNK”. Moreover, the “activating autophosphorylation of TAK1-D on T184 and T187” value on TAK1-D is on record as “No such activation was detectable”.

As for “si5OMeA: si5 sequence with U and G 2′-O-methylated in the antisense strand only (SEQ ID NO:27 and 28) (chain 1 GGCUUUUGACCUUUAUGAATT; chain 2 UUCCGAAAACUGGAAAUACUU; 2'-O-methyl U and G in antisense strand, chemistry not fully specified; one strand is listed 3' to 5')”, in the data set on TLK1, the “expression level of TLK1” value is listed as “very significant reduction in the expression of TLK1”.

Consider `C[C@@H]1C[C@@H]([C@H](O)CC2CC(=O)NC(=O)C2)C(=O)[C@@H](C)C1` [Cycloheximide], for which the “activating phosphorylations of SAPK/JNK and its upstream kinase MKK4” value in the data set on SAPK/JNK pathway is “induced activating phosphorylations”; in the data set with SAPK/JNK pathway (listed as cycloheximide), “induce an activation of p38 MAP kinase and SAPK/JNK”. Also, the “activating phosphorylations of p38 MAP kinase and its upstream kinases MKK3/6” value with p38 MAP kinase pathway was “induced activating phosphorylations; also recorded: induce an activation of p38 MAP kinase and SAPK/JNK”. The “activating autophosphorylation of TAK1-D on T184 and T187” value at TAK1-D was “No such activation was detectable”.

With “shRNA: short hairpin RNA containing the si5 sequence, in vitro transcribed with T7 RNA polymerase (SEQ ID NO:20) (GGCUUUUGACCUUUAUGAAUUAAUUCAUAAAGGUCAAAAGCC; siRNA; RNA, phosphodiester; hairpin)”, the “cell death, crystal violet” value with H460 cells (H460, 48 hours after transfection, shRNA experiment) was “led to cell death”.

With “OmeD: si5 sequence with 2′-O-methyl on both strands (SEQ ID NO:23 and 24) (chain 1 GGCUUUUGACCUUUAUGAAUU; chain 2 UUCCGAAAACUGGAAAUACUU; siRNA; 2'-O-methyl at dot-marked bases on both strands, pattern not given here; one strand is listed 3' to 5')”, the “activating autophosphorylation (activation) of TAK1-D on T184 and T187” value in the data set with TAK1-D (H460 cells) is on record as “no activation of Tak1-D could be detected”. In addition, the “expression level of TLK1” value in the data set with TLK1 is “very significant reduction in the expression of TLK1”.

In the case of “AU: dsRNA with alternating A and U bases (control, SEQ ID NO:21 and 22) (chain 1 AUAUAUAUAUAUAUAUAUATT; chain 2 TTUAUAUAUAUAUAUAUAUAU; chemistry not given here) [reference compound]”, the “activating autophosphorylation (activation) of TAK1-D on T184 and T187” value with TAK1-D (H460 cells) is “does not activate the TAK1-D pathway”.

Turning to “si5d: si5 with one U of the homopolymeric stretch changed to a C (SEQ ID NO:19) (GGCUUCUGACCUUUAUGAATT; siRNA; sugars from the 5' end r19 d2, backbone not given here)”, the “activating autophosphorylation (activation) of TAK1-D on T184 and T187” value with TAK1-D (H460 cells) was “significantly reduced the capacity of the molecule to activate TAK1-D”. Moreover, the “expression level of TLK1” value in the data set on TLK1 is reported as “very significant reduction in the expression of TLK1”.

For the compound “si6: control 21-mer siRNA against TLK1 mRNA: GGGUGGAAAUGGCUCAAGUtt (SEQ ID NO: 4) / gtCCCACCUUUACCGAGUUCA (SEQ ID NO: 5) (sense GGGUGGAAAUGGCUCAAGUTT; antisense GTCCCACCUUUACCGAGUUCA; Artificial primer) [reference compound]”, the “cytotoxicity, Crystal Violet” value in the data set with H460 cells (H460, concentration range tested (up to 20 nM), 48 h) is given as “does not show any significant cytotoxicity”.

On to “si5l: si5 extended by adding 2 ribonucleotides (SEQ ID NO:18) (GGCUUUUGACCUGUUUAUGAATT; siRNA; sugars from the 5' end r21 d2, backbone not given here)”, for which the “activation of the p38 MAP kinase pathway (phosphorylation of MKK3/6, p38 MAPK)” value in the data set with p38 MAP kinase pathway (H460 cells, 20 nM RNA, 2-6 h) is “small activation of Tak1-D and p38 MAPK could still be observed”. In addition, the “activating autophosphorylation (activation) of TAK1-D on T184 and T187” value with TAK1-D (H460 cells) was “significantly reduced its activity”. For the same compound, the “expression level of TLK1” value with TLK1 was “lack of post-transcriptional silencing of TLK1”.

Turning to “IL1: interleukin 1, positive control activating the long TAK1 variant via IL-1 receptor”, in the data set on NF-κB, the “activation of the NFκB cascade (IKKα/β phosphorylation)” value is given as “activates the NFκB pathway”. For the same compound, the “autophosphorylation of the long splicing variant of Tak1” value in the data set on TAK1-A is “autophosphorylation of the large splicing variant of Tak1 (A and B)”; with TAK1-A (listed as IL1β), “activates exclusively the long form of TAK1 (TAK1-A)”. Further, in the data set on p38 MAP kinase pathway (H460 cells, 10 ng/ml IL1), the “activation of the p38 MAP kinase pathway (MKK3/6)” value is “activating the p38 MAP kinase pathway (MKK3/6)”. Moreover, the “activation of TAK1-D” value with TAK1-D (H460 cells, 10 ng/ml IL-1) is on record as “does not activate TAK1-D”.

In the case of `CN[C@@H]1[C@@H](O)[C@@H](O[C@@H]2[C@@H](O)[C@H](O[C@H]3O[C@H]([C@@H](C)O)[C@@H](O)[C@H](O)[C@H]3N)[C@@H](N)C[C@H]2N)OC[C@]1(C)O` [G418], the “activating phosphorylations of SAPK/JNK and its upstream kinase MKK4” value in the data set with SAPK/JNK pathway is reported as “exception”. Also, in the data set on p38 MAP kinase pathway, the “activating phosphorylations of p38 MAP kinase and its upstream kinases MKK3/6” value was “exception”.

As for `COc1ccc(C[C@H](N)C(=O)N[C@H]2[C@@H](O)[C@H](n3cnc4c(N(C)C)ncnc43)O[C@@H]2CO)cc1` [Puromycin, reference compound], in the data set with SAPK/JNK pathway, the “activating phosphorylations of SAPK/JNK and its upstream kinase MKK4” value is “induced activating phosphorylations”. In addition, in the data set on p38 MAP kinase pathway, the “activating phosphorylations of p38 MAP kinase and its upstream kinases MKK3/6” value is on record as “induced activating phosphorylations”. The “activating autophosphorylation of TAK1-D on T184 and T187” value on TAK1-D is “led to an activating autophosphorylation of TAK1-D”; at TAK1-D (listed as puromycin), “induce an activating TAK1-D phosphorylation”.

In the case of “OmeS: si5 sequence with several bases of the sense strand 2′-O-methyl modified (SEQ ID NO:25 and 26) (chain 1 GGCUUUUGACCUUUAUGAAUU; chain 2 TTCCGAAAACUGGAAAUACUU; 2'-O-methyl on sense strand bases, chemistry not fully specified; one strand is listed 3' to 5')”, the “expression level of TLK1” value in the data set on TLK1 is “very significant reduction in the expression of TLK1”.
